Format in all cases: functional
The subject of test [1] is CCRF-CEM. The test can be described thus: In vitro concentration required for 50% inhibition of growth of human leukemia cell line CCRF-CEM with hPAP (0.2 unit/mL).
Test [2] relates to CCRF-CEM. Put plainly: In vitro concentration required for 50% inhibition of growth of human leukemia cell line CCRF-CEM without hPAP (0.2 unit/mL).
Test [3] can be described thus: Ratio of GI50 without hPAP/ GI50 with hPAP.

Experimental findings from ChEMBL document CHEMBL1133824, “Amino acid phosphoramidate nucleosides: potential ADEPT/GDEPT substrates” (2001) are described below.

A word on the GI50: it is the concentration at which growth is held to half of that of the control. Low readings indicate greater sensitivity of the cells, high ones lower sensitivity of the cells.

Structures are written as SMILES.

Take `COC(=O)[C@H](Cc1c[nH]c2ccccc12)NP(=O)(O)OCC1OC(n2cc(F)c(=O)[nH]c2=O)CC1O` (some centres not stated): the GI50 in test [1] was 0.9 nM; in test [2] it was 4830 nM. Also, in test [3], the Ratio worked out at 5370.

For `COC(=O)[C@H](Cc1ccccc1)NP(=O)(O)OCC1OC(n2cc(F)c(=O)[nH]c2=O)CC1O` (some centres not stated), the GI50 in test [1] came to 0.8 nM; in test [2], 463 nM. Also, the Ratio in test [3] turned out to be 578.

Turning to `Nc1ccn([C@@H]2O[C@H](CO)[C@@H](O)[C@@H]2O)c(=O)n1` [CYTARABINE], the 50% growth inhibitory concentration (GI50) came to 99.8 nM in test [1] and 90 nM in test [2]. The Ratio in test [3] was determined as 0.902.

Turning to `O=c1[nH]c(=O)n([C@H]2C[C@H](O)[C@@H](CO)O2)cc1F` [FLOXURIDINE], the GI50 is 0.6 nM in test [1] and 2 nM in test [2]. Also, the Ratio in test [3] stood at 3.33.
